Laboratory results: patent publication US10975068B2, “6-aminopyridin-3-yl thiazoles as modulators of RORγT” (Janssen Pharmaceutica NV, priority 2016, dated 2021)
Read-outs that look alike come from different tables or passages of the source. Marks after values point to notes of the source that are not given here.

What was measured:
full-length human RORγt = full-length human RORγt (Homo sapiens (Human), UniProt P51449); experiment: RORγt (full-length human) reporter assay, Conditions B or C; assay type: cell-based; conditions: for RORγt (FL) Reporter Assay B or C, % inhibition (value marked *): marked *: footnote not given; for RORγt (FL) Reporter Assay B or C, % inhibition (value marked ***): marked ***: footnote not given
full-length human RORγt, sequence (P51449 other isoform, or with tags, fused parts or gaps): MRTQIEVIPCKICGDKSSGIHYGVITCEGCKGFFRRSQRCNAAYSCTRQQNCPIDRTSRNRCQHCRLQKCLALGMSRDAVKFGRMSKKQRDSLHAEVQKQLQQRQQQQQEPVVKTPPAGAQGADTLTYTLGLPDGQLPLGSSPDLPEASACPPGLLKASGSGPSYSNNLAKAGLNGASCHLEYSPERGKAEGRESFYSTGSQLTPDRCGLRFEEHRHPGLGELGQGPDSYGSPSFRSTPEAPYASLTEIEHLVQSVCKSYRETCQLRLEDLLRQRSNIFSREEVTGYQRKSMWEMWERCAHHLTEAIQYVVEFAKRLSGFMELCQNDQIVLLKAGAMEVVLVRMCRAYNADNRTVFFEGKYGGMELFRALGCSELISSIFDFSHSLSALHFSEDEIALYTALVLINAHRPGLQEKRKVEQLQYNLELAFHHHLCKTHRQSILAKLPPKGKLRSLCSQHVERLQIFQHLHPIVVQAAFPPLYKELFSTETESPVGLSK
Outline: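 HEK293T cells transiently co-transfected with GAL4-DBD–full-length human RORγt (nt 142-1635, NM_001001523.1) plus GAL4-firefly and CMV-Renilla luciferase reporters; compounds added 4-6 h post-transfection for 16-20 h in 1.3% FBS, 0.1% DMSO. Firefly signal normalized to DMSO and saturating reference compound, then to Renilla; IC50 from concentration plots.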

[1] = biological target: human RORγt ligand binding domain (RORγt LBD) (Homo sapiens (Human), UniProt P51449); experiment: RORγt ThermoFluor® assay (thermal shift binding)
human RORγt ligand binding domain (RORγt LBD), sequence (P51449 other isoform, or with tags, fused parts or gaps): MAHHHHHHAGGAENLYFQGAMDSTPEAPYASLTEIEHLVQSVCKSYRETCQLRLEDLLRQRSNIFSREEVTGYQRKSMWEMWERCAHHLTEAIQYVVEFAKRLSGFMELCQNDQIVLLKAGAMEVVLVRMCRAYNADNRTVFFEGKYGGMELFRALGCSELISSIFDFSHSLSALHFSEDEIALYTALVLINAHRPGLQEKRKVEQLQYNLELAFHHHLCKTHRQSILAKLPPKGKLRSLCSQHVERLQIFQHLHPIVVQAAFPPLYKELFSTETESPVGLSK
Outline: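 His-tagged human RORγt LBD (0.065 mg/mL) with 60 μM 1,8-ANS in 100 mM Hepes pH 7.0, 10 mM NaCl, 2.5 mM GSH, 0.002% Tween-20 was heated at 1 °C/min.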

[2] = Conditions B or C, read-out: RORγt (FL) Reporter Assay B or C, IC50
[3] = read-out: ThermoFluor® Assay, Kd
[4] = at 3 μM compound concentration, read-out: RORγt (FL) Reporter Assay B or C, % inhibition
[5] = read-out: RORγt (FL) Reporter Assay B or C, IC50
[6] = RORγt (FL) Reporter Assay B or C, IC50 (μM), Conditions B or C

SMILES | RORγt (FL) Reporter Assay B or C, % inhibition (value marked *) (full-length human RORγt; Conditions B or C) | IC50 (full-length human RORγt; [2]) [µM] | Kd [1, 3] [µM] | inhibition at 3 µM (full-length human RORγt; [4]) [%] | IC50 (full-length human RORγt; [5]) [µM] | other results
CCC(C)(C)Nc1cc(C(F)F)c(-c2sc(C(=O)NCC(C)(C)O)nc2C(=O)N2CCC[C@@H]2C)cn1 [Example 96, (S)-5-(4-(Difluoromethyl)-6-(tert-pentylamino)pyridin-3-yl)-N-(2-hydroxy-2-methylpropyl)-4-(2-methylpyrrolidine-1-carbonyl)thiazole-2-carboxamide] | 119* % | 0.037 | 0.0012 |  |  | 
C[C@@H](Nc1cc(C(F)(F)F)c(-c2sc(C(=O)NCC(C)(C)O)nc2C(=O)N2CCC[C@@H]2C)cn1)C1CCC1 (relative stereo) [Example 176, 5-(6-(((R*)-1-Cyclobutylethyl)amino)-4-(trifluoromethyl)pyridine-3-yl)-N-(2-hydroxy-2-methylpropyl)-4-((S)-2-methylpyrrolidine-1-carbonyl)thiazole-2-carboxamide] |  | 0.015 | 0.0013 |  |  | RORγt (FL) Reporter Assay B or C, % inhibition (value marked ***) (full-length human RORγt; Conditions B or C): 115*** %
CCC(C)(C)Nc1cc(C(F)(F)F)c(-c2sc(C(=O)NCC(C)(C)O)nc2C(=O)N2CCC[C@@H]2C)cn1 [Example 109, (S)—N-(2-Hydroxy-2-methylpropyl)-4-(2-methylpyrrolidine-1-carbonyl)-5-(6-(tert-pentylamino)-4-(trifluoromethyl)pyridin-3-yl)thiazole-2-carboxamide] | 124* % | 0.018 | 0.00053 |  |  | 
CC[C@H](Nc1cc(C(F)F)c(-c2sc(C(=O)N[C@@H](C)[C@@H](C)O)nc2C(=O)N2CCC[C@@H]2C)cn1)C(F)(F)F (relative stereo) [Example 219, 5-(4-(Difluoromethyl)-6-(((S)-1,1,1-trifluorobutan-2-yl)amino)pyridin-3-yl)-N-((2S*,3R*)-3-hydroxybutan-2-yl)-4-((S)-2-methylpyrrolidine-1-carbonyl)thiazole-2-carboxamide] | 112* % | 0.02 | 0.0041 |  |  | 
CC[C@H](Nc1cc(C(F)F)c(-c2sc(C(=O)N[C@H]3CC[C@H](O)C3)nc2C(=O)N2C3CCC2CC3)cn1)C(F)(F)F [Example 151] | 104* % | 0.015 | 0.00087 |  |  | 
C[C@H](Nc1cc(C(F)(F)F)c(-c2sc(C(=O)N[C@@H]3COC[C@@H]3O)nc2C(=O)N2C3CCC2CC3)cn1)C(F)(F)F (single isomer, unassigned) [Example 228, 4-((1s,4s)-7-Azabicyclo[2.2.1]heptane-7-carbonyl)-N-((3R*,4R*)-4-hydroxytetrahydrofuran-3-yl)-5-(4-(trifluoromethyl)-6-(((S)-1,1,1-trifluoropropan-2-yl)amino)pyridin-3-yl)thiazole-2-carboxamide] |  |  |  |  |  | RORγt (FL) Reporter Assay B or C, % inhibition (value marked ***) (full-length human RORγt; Conditions B or C): 91*** %; IC50 (full-length human RORγt; [6]): 0.095 µM; Kd ([1]; ThermoFluor® Assay, Kd (μM)): 0.0023 µM
C[C@H](Nc1cc(C(F)F)c(-c2sc(C(=O)N[C@H](C)C(C)(C)O)nc2C(=O)N2CC(F)(F)C[C@@H]2C)cn1)C1CC1 [Example 194, 5-(6-(((S)-1-Cyclopropylethyl)amino)-4-(difluoromethyl)pyridine-3-yl)-4-((S)-4,4-difluoro-2-methylpyrrolidine-1-carbonyl)-N—((R)-3-hydroxy-3-methylbutan-2-yl)thiazole-2-carboxamide] | 85* % | 0.088 | 0.0047 |  |  | 
C[C@H]1CC(F)(F)CN1C(=O)c1nc(C(=O)NC2CCS(=O)(=O)CC2)sc1-c1cnc(NC2(C)CCC2)cc1C(F)F [Example 328, (S)-4-(4,4-Difluoro-2-methylpyrrolidine-1-carbonyl)-5-(4-(difluoromethyl)-6-((1-methylcyclobutyl)amino)pyridin-3-yl)-N-(1,1-dioxidotetrahydro-2H-thiopyran-4-yl)thiazole-2-carboxamide] |  |  | 0.00031 | 87 | 0.051 | 
O=C(N[C@H]1CC[C@@H]1O)c1nc(C(=O)N2C3CCC2CC3)c(-c2cnc(N[C@@H](C3CC3)C(F)(F)F)cc2C(F)F)s1 (relative stereo) [Example 444, 4-((1s,4s)-7-Azabicyclo[2.2.1]heptane-7-carbonyl)-5-(6-(((S)-1-cyclopropyl-2,2,2-trifluoroethyl)amino)-4-(difluoromethyl)pyridin-3-yl)-N-((1S*,2S*)-2-hydroxycyclobutyl)thiazole-2-carboxamide] |  |  | 0.0023 | 102 | 0.0045 | 
CC[C@@H](Nc1cc(C(F)F)c(-c2sc(C(=O)N[C@H]3C[C@H](O)C3)nc2C(=O)N2CCC[C@@H]2C)cn1)C(F)(F)F [Example 205, 5-(4-(Difluoromethyl)-6-(((1R)-1-(trifluoromethyl)propyl)amino)-3-pyridyl)-N-((1r,3S)-3-hydroxycyclobutyl)-4-((2S)-2-methylpyrrolidine-1-carbonyl)thiazole-2-carboxamide] | 103* % | 0.033 | 0.0068 |  |  | 
C[C@H]1CC(F)(F)CN1C(=O)c1nc(C(=O)NCC(C)(C)O)sc1-c1cnc(NCC2(C(F)(F)F)CC2)cc1C(F)(F)F [Example 126, (S)-4-(4,4-Difluoro-2-methylpyrrolidine-1-carbonyl)-N-(2-hydroxy-2-methylpropyl)-5-(4-(trifluoromethyl)-6-(((1-(trifluoromethyl)cyclopropyl)methyl)amino)pyridin-3-yl)thiazole-2-carboxamide] | 98* % | 0.069 | 0.00085 |  |  | 
CC[C@H](Nc1cc(C(F)F)c(-c2sc(C(=O)NCC(C)(C)O)nc2C(=O)N2C3CCC2CC3)cn1)C(F)(F)F [Example 89, 4-((1s,4s)-7-Azabicyclo[2.2.1]heptane-7-carbonyl)-5-(4-(difluoromethyl)-6-(((S)-1,1,1-trifluorobutan-2-yl)amino)pyridin-3-yl)-N-(2-hydroxy-2-methylpropyl)thiazole-2-carboxamide] | 100* % |  | 0.0052 |  |  | IC50 (full-length human RORγt; [6]): 0.024 µM

Further lines, with some results ahead:

RORγt (FL) Reporter Assay B or C, % inhibition (value marked *) (full-length human RORγt; Conditions B or C) | IC50 (full-length human RORγt; [2]) [µM] | Kd [1, 3] [µM] | inhibition at 3 µM (full-length human RORγt; [4]) [%] | IC50 (full-length human RORγt; [5]) [µM] | SMILES | other results
 |  | 0.0008 | 99 | 0.028 | C[C@H](Nc1cc(C(F)F)c(-c2sc(C(=O)NC3CCOCC3)nc2C(=O)N2CC(F)(F)C[C@@H]2C)cn1)C(F)(F)F [Example 448, 4-[(2S)-4,4-Difluoro-2-methyl-pyrrolidine-1-carbonyl]-5-[4-(difluoromethyl)-6-[[(1S)-2,2,2-trifluoro-1-methyl-ethyl]amino]-3-pyridyl]-N-tetrahydropyran-4-yl-thiazole-2-carboxamide] | 
 |  | 0.0014 | 112 | 0.013 | C[C@H](CO)NC(=O)c1nc(C(=O)N2CCC[C@@H]2C)c(-c2cnc(NC(C)(C)C)cc2C(F)(F)F)s1 [Example 346, 5-[6-(tert-Butylamino)-4-(trifluoromethyl)-3-pyridyl]-N-[(1R)-2-hydroxy-1-methyl-ethyl]-4-[(2S)-2-methylpyrrolidine-1-carbonyl]thiazole-2-carboxamide] | 
 |  | 0.029 | 118 | 0.027 | CC[C@H](Nc1cc(C(F)F)c(-c2sc(C(=O)N3CC(S(C)(=O)=O)C3)nc2C(=O)N2CCC[C@@H]2C)cn1)C(F)(F)F [Example 393, [5-[4-(Difluoromethyl)-6-[[(1S)-1-(trifluoromethyl)propyl]amino]-3-pyridyl]-2-(3-methylsulfonylazetidine-1-carbonyl)thiazol-4-yl]-[(28)-2-methylpyrrolidin-1-yl]methanone] | 
 |  | 0.0024 |  | 0.055 | CC[C@H](Nc1cc(C(F)F)c(-c2sc(C(=O)NC3CCC3O)nc2C(=O)N2CCC[C@@H]2C)cn1)C(F)(F)F (stereo partly drawn) [Example 379, 5-(4-(Difluoromethyl)-6-(((S)-1,1,1-trifluorobutan-2-yl)amino)pyridin-3-yl)-N-(cis-2-hydroxycyclobutyl)-4-((S)-2-methylpyrrolidine-1-carbonyl)thiazole-2-carboxamide] | RORγt (FL) Reporter Assay B or C, % inhibition (full-length human RORγt; at 3 μM compound concentration): 101* %
 |  | 0.011 | 105 | 0.063 | C[C@H]1CCCN1C(=O)c1nc(C(=O)N2CC[C@@H](O)C2)sc1-c1cnc(NC(C)(C)C)cc1C(F)(F)F [Example 349, [5-[6-(tert-Butylamino)-4-(trifluoromethyl)-3-pyridyl]-2-[(3R)-3-hydroxypyrrolidine-1-carbonyl]thiazol-4-yl]-[(2S)-2-methylpyrrolidin-1-yl]methanone] | 
 |  | 0.0043 |  | 0.038 | C[C@H]1CCCN1C(=O)c1nc(C(=O)N[C@H]2COC[C@@H]2O)sc1-c1cnc(NC(C)(C)C)cc1C(F)F [Example 401, 5-[6-(tert-Butylamino)-4-(difluoromethyl)-3-pyridyl]-N-[(3S,4R)-4-hydroxytetrahydrofuran-3-yl]-4-[(2S)-2-methylpyrrolidine-1-carbonyl]thiazole-2-carboxamide] | inhibition at 1 µM (full-length human RORγt; at 1 μM compound concentration, read-out: RORγt (FL) Reporter Assay B or C, % inhibition): 102%
 |  | 0.04 | 103 | 0.034 | CC[C@H](Nc1cc(C(F)F)c(-c2sc(C(=O)N3CCOCC3)nc2C(=O)N2CCC[C@@H]2C)cn1)C(F)(F)F [Example 395, [5-[4-(Difluoromethyl)-6-[[(1S)-1-(trifluoromethyl)propyl]amino]-3-pyridyl]-2-(morpholine-4-carbonyl)thiazol-4-yl]-[(2S)-2-methylpyrrolidin-1-yl]methanone] | 
